Reference: patent US20260014184A1, “ADENOSINE DERIVATIVES FOR USE IN THE TREATMENT OF NEURODEGENERATIVE DISORDERS AND CANCER” (UNIVERSITY COLLEGE CARDIFF CONSULTANTS LIMITED, priority 2022, published 2026)

Experiments:
Ub Ser65 phosphorylation = assay: Phospho-Ub (Ub Ser65) immunoblotting in parkin- or YFP-parkin-transfected HeLa cells; assay type: cell-based; conditions: for inhibition of PINK1-mediated ubiquitin phosphorylation (summary statement): in cells and astrocytes, induced by mitochondrial depolarizing agents CCCP and niclosamide
Protocol: (§1) Both HeLa and parkin-overexpressed HeLa cells were maintained in DMEM high glucose (Gibco), 10% FBS (Sigma-Aldrich) at 37° C. with 5% CO2. For experiments, cells were counted and seeded into a range of culture plates, depending on the experiment, cell counting was done using the Cellometer Auto T4 with TrypanBlue (Gibco). […] Alternatively, HeLa cells were seeded in well plates and then transfected with […] of parkin cDNA using the PEI method once the plated cells reached 60% confluency. After 6 hours, the media was changed. Sub-culturing was done when the cells reached ˜90% confluency.
(§2) Cell culture with 70-80% confluency was lysed as follows: cells were washed with Phosphate Buffer Saline (PBS) (Sigma). 150 μl of lysis buffer was used on each well containing either: • 50 mM Tris-HCl pH 7.5, 1 mM EDTA, 1 mM EGTA, 0.27 M sucrose, 1 mM Na3VO4, 50 mM NaF, 5 mM Na pyrophosphate and fresh 1 mM benzamidine, 1% NP-40 and […]; or • 50 mM Tris-HCl pH 7.5, 1 mM EDTA, 1 mM EGTA, 10 mM Na β-glycerophosphate, 0.27 M sucrose, 1 mM Na3VO4, 50 mM NaF, 10 mM Na pyrophosphate with fresh 1 mM benzamidine, 1% Triton X-100, complete EDTA-free Protease Inhibitor, Phosphatase inhibitor cocktail 3 and 100 μM of 2-chloroacetamide.
(§3) The cells were scrapped and transferred to the microtube and eventually spun down at 12,000 rpm for 15 minutes at 4° C. Finally, the supernatant was transferred to the new microtubes and stored at −20° C. Protein concentration was measured using Bradford Assay. Serial concentrations 0.125; 0.25; 0.5 and 1 mg/ml of Bovine Serum Albumin (BSA) (Sigma Aldrich) were used as a standard. Samples were boiled at 90° C. for 5 minutes in SDS sample loading buffer.
The next day membranes were washed in TBST and incubated with horse radish peroxidase (HRP)-conjugated antibodies for 1 h at room temperature with agitation. Following TBST washes, proteins were visualised using Amersham™ ECL™ Prime kit (GE Biosciences) and imaged using the Bio-rad ChemicDoc. Primary antibodies used for western blotting; GAPDH (Abcam cat #ab9485), Phospho-Ub Ser 65 (Sigma-Aldrich cat #ABS1513-1), LC3B (Cell Signaling cat #3868S). Secondary antibodies used for western blotting; anti-rabbit HRP (Agilent Dako cat #P0399), anti-mouse HRP (Agilent Dako cat #P0260).
(§4) To explore this, we first treated parkin-transfected HeLa cells for 24 h with 50 μM kinetin, kinetin riboside or kinetin riboside ProTide, a monophosphate prodrug of kinetin riboside.

[1] = test system: ubiquitin Ser65 phosphorylation; assay: Ubiquitin Ser65 phosphorylation in astrocytes with or without valinomycin; assay type: cell-based
Protocol: Briefly, astrocytes were treated with 50 μM of the nucleobase kinetin, nucleosides 9a and 9c or DMSO for 24 h and 5 h prior to lysis, the samples were treated with 50 nM valinomycin, a mitochondrial uncoupler.

TcPINK1 = target: T1, TcPINK1 (Tribolium castaneum, UniProt D6WMX4); assay: PINK1 in vitro kinase assay with parkin or ubiquitin as substrates; assay type: biochemical; conditions: increasing concentrations, max 100 μM; human parkin or ubiquitin as substrates
T1 construct: purchased MRC PPU Reagents and Services (University of Dundee, U.K.)
T1 sequence (D6WMX4 6-570): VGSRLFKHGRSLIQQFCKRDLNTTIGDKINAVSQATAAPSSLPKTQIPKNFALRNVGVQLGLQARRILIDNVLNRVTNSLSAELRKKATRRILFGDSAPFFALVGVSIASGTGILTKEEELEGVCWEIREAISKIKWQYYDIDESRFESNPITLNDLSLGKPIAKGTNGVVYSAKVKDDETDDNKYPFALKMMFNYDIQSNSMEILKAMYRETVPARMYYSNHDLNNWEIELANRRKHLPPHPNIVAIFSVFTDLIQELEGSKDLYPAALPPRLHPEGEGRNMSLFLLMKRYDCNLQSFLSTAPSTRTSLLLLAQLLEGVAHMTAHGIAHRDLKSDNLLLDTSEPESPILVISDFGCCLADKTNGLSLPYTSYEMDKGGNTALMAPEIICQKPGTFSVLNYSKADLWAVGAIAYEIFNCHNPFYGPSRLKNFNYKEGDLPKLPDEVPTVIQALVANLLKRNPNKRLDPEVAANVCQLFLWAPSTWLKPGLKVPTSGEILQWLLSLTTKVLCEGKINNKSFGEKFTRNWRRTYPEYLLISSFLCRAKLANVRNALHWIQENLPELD
Protocol: This assay was carried out by the MRC PPU Reagents and Services (University of Dundee, U.K.). The assay was conducted as follows: TcPINK1 (5-20mU diluted in 50 mM Tris pH 7.5, 0.1 mM EGTA, 1 mg/ml BSA, 0.1% mercaptoethanol) is assayed against GST PARK2 TV3 or Ubiquitin-His in a final volume of […] containing 50 mM Tris pH 7.5, 0.1 mM EDTA, 10 mM DTT, protein substrate (0.3 mg/ml of GST PARK2 TV3 or 1 mg/ml of Ubiquitin-His, 10 mM magnesium acetate and 0.1 mM [33P-γ-ATP](50-1000 cpm/pmole) in the presence of the relevant small molecule (serial dilution with the highest concentration being 100 μM) and incubated for 30 min at room temperature. Assays are stopped by addition of 5 μl of 0.5 M (3%) orthophosphoric acid and then harvested onto P81 Unifilter plates with a wash buffer of 50 mM orthophosphoric acid.
To examine this further, we ran in vitro kinase assays employing recombinant and constitutively active Tribolium castaneum PINK1 (TcPINK1) and either human parkin or ubiquitin as substrates in the presence of increasing concentrations (max 100 μM) of kinetin riboside, benzyladenosine 9c or its triphosphate derivative (FIG. 6). […]

OPA1 = OPA1 cleavage immunoblot (mitochondrial membrane depolarization) in parkin-transfected HeLa cells; assay type: cell-based; conditions: 50 μM 24 h, then 10 μM CCCP 3 h
Protocol: as §1, §2, §3, §4

[2] = test system: HeLa cells transfected with YFP-parkin; assay: TMRM fluorescence (mitochondrial membrane potential); assay type: cell-based; conditions: pre-treatment 50 μM 24 h; data not shown
Protocol: For assessing tetramethylrhodamine methyl ester perchlorate (TMRM) fluorescence, cell media was removed and replaced with cell media consisting of 5 nM TMRM (ThermoFisher) and 10 μg/ml Hoechst 33258 stain for 30 mins in the dark at 37° C. to allow incorporation of TMRM into mitochondria. Following PBS washes, FluoroBrite DMEM (Gibco) media was added to cells, followed by subsequent imaging using a Zeiss LSM800 microscope at 37° C. with 5% CO2.

SMILES	inhibition of PINK1-mediated ubiquitin phosphorylation (summary statement) (Ub Ser65 phosphorylation)	ubiquitin Ser65 phosphorylation after pre-treatment followed by valinomycin, compared to valinomycin alone ([1]; 50 μM 24 h, 50 nM valinomycin for 5 h)	ubiquitin Ser65 phosphorylation, compound alone ([1]; 50 μM, 24 h)	effect on TcPINK1 kinase activity (covalent inhibition) (TcPINK1)	inhibition of CCCP-induced phosphorylation of ubiquitin by pre-treatment (Ub Ser65 phosphorylation; YFP-parkin HeLa cells, 50 μM 24 h, then 10 μM CCCP 1 h, immunoblot)	inhibition of niclosamide-induced phosphorylation of ubiquitin by pre-treatment (Ub Ser65 phosphorylation; YFP-parkin HeLa cells, 50 μM 24 h, then 10 μM niclosamide 1 h, immunoblot)	inhibition of CCCP-induced phosphorylation of ubiquitin by pre-treatment (Ub Ser65 phosphorylation; parkin-transfected HeLa cells, 50 μM 24 h, then 10 μM CCCP 3 h, immunoblot)	phosphorylation of ubiquitin (Ub Ser65), compound alone (Ub Ser65 phosphorylation; parkin-transfected HeLa cells, 50 μM, 24 h, no CCCP, immunoblot)	prevention of OPA1 cleavage by pre-treatment (OPA1)	prevention of membrane potential collapse caused by niclosamide and CCCP [2]
OC[C@H]1O[C@@H](n2cnc3c(NCc4ccccc4)ncnc32)[C@H](O)[C@@H]1O [9c, (2R,3R,4S,5R)-2-(6-(benzylamino)-9H-purin-9-yl)-5-(hydroxymethyl)tetrahydrofuran-3,4-diol]	inhibit ubiquitin phosphorylation	significant suppression of ubiquitin Ser65 phosphorylation	increased phosphorylation	unlikely to be PINK1 covalent inhibitors						
OC[C@H]1O[C@@H](n2cnc3c(NCc4ccco4)ncnc32)[C@H](O)[C@@H]1O [kinetin riboside, N^6-(2-furanylmethyl) adenosine]	inhibit ubiquitin phosphorylation			unlikely to be PINK1 covalent inhibitors	inhibited	inhibited	inhibited the CCCP-induced phosphorylation of ubiquitin	did not lead to any notable phosphorylation of ubiquitin	did not prevent this effect	did not prevent the membrane potential collapse
